Data from publication PMC5717258, “Bioaccumulation of pharmaceuticals and personal care product chemicals in fish exposed to wastewater effluent in an urban wetland” (Scientific Reports, 2017).
Read-outs that look alike come from different tables or passages of the source.

Columns and labels:
[1] = for plasma concentration, CPM-C 01: Cootes carp 01, 2011, male
Method: (§1) Plasma from 9 individual male fish (500 µL/individual) was pooled to yield 3 samples for PPCP analysis. […] Plasma from 6 individual carp (2.3–3.5 g) from each location was selected for PPCP analysis. […] Plasma samples were frozen (−80 °C) until analysis.
(§2) A total of 20 fish plasma samples from the pooled caged fish (7) and the wild fish (13) along with 12 water samples were selected for analysis. […] A full list of analytes is provided in Supplementary Information. Mass labelled^13C-, or deuterated surrogate internal standards were used for quantification of all analytes via the isotope dilution/surrogate standard quantitation method. Prior to extraction and/or clean-up procedures, aqueous samples were adjusted to pH 2.0, spiked with extraction surrogate standards, then adjusted to pH 4 using tetrasodium ethylenediamine-tetraacetate dihydrate. Plasma samples (2.3–2.5 g) were spiked with extraction surrogate standards, sonicated with 20 mL acetonitrile, then diluted with ultra-pure water to 200 mL. The extracts were cleaned up by solid phase extraction using Oasis HLB cartridges (Waters Ltd. Mississauga ON), filtered, and analyzed by liquid chromatography-electrospray ionization-tandem mass spectrometry (LC/ESI-MS/MS) in positive or negative ionization mode. The analysis of the complete list of analytes (SI Table S1) required a total of five instrumental runs.
(§3) Quality assurance steps included analysis of lab blanks for water and plasma along with matrix recovery spikes. […] Detection limits (DLs) were defined as lowest calibration level adjusted to the maximal sample size or 3 times the signal of the noise in the target channel converted to an equivalent sample, whichever was greater. […] Where analytes were detected in two or more samples of the same species or series of water samples, non-detect values were converted to ½ the DL value for reporting purposes.

[2] = Method: as §1, §2
[3] = design: method as in US EPA Chemistry Dashboard; conditions: ref US EPA Chemistry Dashboard; cited from earlier work
[4] = human, ref Schulz et al.[56], cited from earlier work; for Therapeutic "normal" blood-plasma/serum concentration: converted from µg/mL
[5] = ref Meador et al. 18; cited from earlier work
[6] = cited from earlier work; for whole fish concentration, salmon: ref Meador et al. 18
[7] = Plasma bioaccumulation factor (BAFP), goldfish; type: in vivo, goldfish (Carassius auratus)
Method: Bioaccumulation factor (BAFP) was calculated as concentration in fish plasma (ng/g × 1000) divided by concentration in water (ng/L). Two widely used modeling approaches for predicting organic contaminant bioaccumulation were assessed: the BCF-BAF model for whole body BAFs[53] and the fish-plasma concentration calculation of Huggett et al.[35] modified by Berninger et al.[54]. The latter involves estimating an octanol-water partition coefficient (Kow) adjusted for fraction ionized (log D), using the pKa value to adjust log Kow[54] taking into account the pH of CPM waters. Further information on the calculation of log D, blood-water partitioning (PBW), and plasma concentrations (FPC) is given in the SI.

[8] = in vivo; conditions: goldfish (Carassius auratus), in vivo
Excerpt: Cages were visited weekly, and fish (13/cage) were fed during the visits (20 g/cage). All animal experiments were in accordance with CCAC guidance and approved by the GLLFAS-WSTD Animal Care Committee (Government of Canada). Further details on the caging and preparation of the fish and animal care protocols are provided in Simmons et al.[32]. […] A fourth site, Jordan Harbour (JH), a widening of 20 Mile Creek adjacent to Lake Ontario near Jordan ON, served as a reference site. Mass and fork length were measured and recorded. Plasma collection and storage is described in the SI. Plasma of caged goldfish was divided for proteome, metabolome and PPCP analysis. Due to limited volumes, pooled samples of plasma from 25 individual fish (50 µL/individual) was pooled to yield one sample from at each location for PPCP analysis.
as §2, §3

[9] = Cootes carp 2, Sep 27, 2011, male, wet weight
[10] = Cootes carp 10, Sep 28, 2011, female, wet weight
[11] = Cootes carp 13, Sep 28, 2011, female, wet weight
[12] = Cootes carp 20, 2011, male, wet weight
[13] = Cootes carp 36, Oct 3, 2011, female, wet weight
[14] = Jordan Harbour carp 75, Nov 7, 2011, female, wet weight
[15] = Jordan Harbour brown bullhead, wet weight
[16] = male, goldfish (Carassius auratus), in vivo
[17] = plasma concentration, CPM1 caged
[18] = plasma concentration, CPM2 caged
[19] = plasma concentration, CPM3 caged
[20] = female, carp (Cyprinus carpio), in vivo
[21] = male, carp (Cyprinus carpio), in vivo

Row | SMILES | plasma concentration, CPM-C 01 ([1]; wet weight) | plasma concentration, CPM-C 2 [1, 9] | plasma concentration, CPM-C 10 [1, 10] | plasma concentration, CPM-C 13 [1, 11] | plasma concentration, CPM-C 20 [1, 12] | plasma concentration, CPM-C 36 [1, 13] | plasma concentration, JH-C 75 [1, 14] | plasma concentration, JH-BB [2, 15] | log Kow [3] | Therapeutic "normal" blood-plasma/serum concentration [4] | whole fish concentration, sculpin [5] | whole fish concentration, salmon [6] | plasma concentration, CPM wild-01 [1, 16] | plasma concentration, CPM wild-02 [1, 16] | plasma concentration, CPM wild-03 [1, 16] | concentration at 21 days [8, 17] | concentration at 21 days [8, 18] | concentration at 21 days [8, 19] | concentration at 21 days ([8]; plasma concentration, JH caged) | Carp plasma concentration, this study (range) ([1]; Table S7) | also measured
1 | CC(C(=O)O)c1ccc(CC(C)(C)O)cc1 (centres unmarked) [2-Hydroxy-ibuprofen] | < 16.9 ng/g | < 23 ng/g | < 24.2 ng/g | < 24.9 ng/g | < 17.2 ng/g | < 22.9 ng/g | < 24.1 ng/g | < 30.4 ng/g |  |  |  |  |  |  |  |  |  |  |  |  | plasma concentration, JH-C 54 ([1]; Jordan Harbour carp 54, Nov 7, 2011, male, wet weight): < 16.9 ng/g; plasma concentration, JH-C 73 ([1]; Jordan Harbour carp 73, Nov 7, 2011, female, wet weight): < 16.5 ng/g; plasma concentration, JH-C 74 ([1]; Jordan Harbour carp 74, Nov 7, 2011, male, wet weight): < 17 ng/g; plasma concentration, JH-C 78 ([1]; Jordan Harbour carp 78, Nov 7, 2011, male, wet weight): < 38.5 ng/g; plasma concentration, JH-C 82 ([1]; Jordan Harbour carp 82, Nov 7, 2011, female, wet weight): 17 ng/g
2 | CN1[C@@H]2CC[C@H]1C[C@@H](OC(c1ccccc1)c1ccccc1)C2 [Benztropine] |  |  |  |  |  |  |  |  | 3.85 | 10 to 180 ng/mL | < mdl | 0.2 ng/g wet weight or ng/mL for plasma |  |  |  |  |  |  |  |  | toxic dose (toxic blood-plasma/serum concentration) [4]: 50 ng/mL; Salmon (whole body) concentration ([6]; Table S7, ref Meador et al. (2016)): 0.2 ng/g
3 | CN(C)CCCC1(c2ccc(F)cc2)OCc2cc(C#N)ccc21 (centres unmarked) [Citalopram] |  |  |  |  |  |  |  |  | 3.74 | 50 to 110 ng/mL |  |  | 0.0392 ng/g | 0.127 ng/g | 0.13 ng/g | 0.145 ng/g | 0.163 ng/g | 0.041 ng/g | < 0.08 ng/g |  | plasma concentration, carp, this study (mean) ([1]; in vivo): < mdl; plasma concentration, goldfish, this study (mean) [1, 16]: 0.10 ng/g wet weight or ng/mL for plasma; wild goldfish plasma, range of concentrations [1, 16]: 0.04 to 0.16 ng/g; BAFP, CPM1 goldfish caged ([7]; CPM1): 4 L/kg; BAFP, CPM2 goldfish caged ([7]; CPM2, water sample of August 2012): 6 L/kg; BAFP, CPM3 goldfish caged ([7]; CPM3): 52 L/kg; BAFP at CPM3, wild goldfish, average ([7]; conc in fish plasma/conc in water): 44 L/kg; BAFP at CPM3, wild goldfish, range ([7]; range based on range of plasma concentrations): 18 to 58 L/kg; concentration at 21 days ([8]; caged goldfish plasma, range of concentrations): 0.04 to 0.13 ng/g
4 | C[C@]12CCC(=O)C=C1CC[C@@H]1[C@@H]2[C@@H](O)C[C@@]2(C)[C@H]1CC[C@]2(O)C(=O)CO [Hydrocortisone] |  |  |  |  |  |  |  |  |  |  |  |  | 129 ng/g | 134 ng/g | 118 ng/g | 100 ng/g | 107 ng/g | 113 ng/g | 92.4 ng/g |  | plasma concentration, CPM-C 10 [1, 20]: 764 ng/g; plasma concentration, CPM-C 13 [1, 20]: 1010 ng/g; plasma concentration, CPM-C 36 [1, 20]: 875 ng/g; plasma concentration, JH-C 73 [1, 20]: 456 ng/g; plasma concentration, JH-C 75 [1, 20]: 1440 ng/g; plasma concentration, CPM-C 2 [1, 21]: 1010 ng/g; plasma concentration, CPM-C 20 [1, 21]: 210 ng/g; plasma concentration, JH-C 54 [1, 21]: 232 ng/g; plasma concentration, JH-C 74 [1, 21]: 242 ng/g; plasma concentration, JH-C 78 [1, 21]: 522 ng/g; plasma concentration, JH-BB ([2]; Brown Bullhead (Ameiurus nebulosus), in vivo): 187 ng/g
5 | NCCC(Oc1ccc(C(F)(F)F)cc1)c1ccccc1 (centres unmarked) [Norfluoxetine] | 0.338 ng/g | 0.216 ng/g | 0.227 ng/g | 0.234 ng/g | 0.179 ng/g | 0.215 ng/g |  | < 0.57 ng/g |  |  |  |  |  |  |  |  |  |  |  | 0.18 to 0.34 ng/g | Goldfish plasma concentration, this study (range) ([1]; Table S7): 0.17 to 1.1 ng/g; plasma concentration, CPM wild-01 ([1]; wild goldfish sample 01, 2012, wet weight): 0.300 ng/g; plasma concentration, CPM wild-02 ([1]; wild goldfish sample 02, 2012, wet weight): 0.654 ng/g; plasma concentration, CPM wild-03 ([1]; wild goldfish sample 03, 2012, wet weight): 1.1 ng/g; concentration at 21 days ([8]; plasma concentration, CPM1 caged, CPM1, 07-2014, pooled plasma, wet weight): 0.879 ng/g; concentration at 21 days ([8]; plasma concentration, CPM2 caged, CPM2, 07-2014, pooled plasma, wet weight): 0.58 ng/g; concentration at 21 days ([8]; plasma concentration, CPM3 caged, CPM3, 07-2014, pooled plasma, wet weight): 0.168 ng/g; concentration at 21 days ([8]; plasma concentration, JH caged, Jordan Harbour reference site, 07-2014, pooled plasma, wet weight): < 0.413 ng/g
6 | CCCCC(=O)N(Cc1ccc(-c2ccccc2-c2nnn[nH]2)cc1)[C@H](C(=O)O)C(C)C [Valsartan] | 0.422 ng/g | 1.23 ng/g | 0.605 ng/g | 0.625 ng/g | 0.431 ng/g | 0.570 ng/g | < 1.2 ng/g |  | 3.07 | ~800 to 6000 ng/mL | < mdl | < mdl |  |  |  |  |  |  |  | 0.42 to 1.23 ng/g | Cootes carp plasma, range of concentrations ([1]; Cootes Paradise Marsh, range): 0.42 to 1.23 ng/g; plasma concentration, carp, this study (mean) ([1]; Table S8): 0.65 ng/g wet weight or ng/mL for plasma; plasma concentration, goldfish, this study (mean) ([1]; Table S8): < mdl
